PubChem BioAssay AID248 (DTP/NCI, 2004)
Values joined by “and” are separate entries in the source; they are usually repeats but may differ in a detail not shown here. Identical values can stand only once. Toxic doses and inconclusive results are not listed. Cut-off read from the data, not from the text of the source: active = T/C of 150% or more; inactive = T/C below 125%.

System: L1210 leukemia ip in BDF1 mice, survival T/C
Experiment: NCI In Vivo Anticancer Drug Screen. Data for tumor model L1210 Leukemia (intraperitoneal) in B6D2F1 (BDF1) mice
Conditions: endpoint: mean survival time, higher = longer survival
In short: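 Tumor cells were implanted, animals were treated, and survival was followed. The result divides the treated measurement by the vehicle-control measurement.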

[1] = dose: 100.0 mg/kg/injection, schedule: Q01DX001 (ip), vehicle: carboxymethylcellulose (CMC)
[2] = dose: 200.0 mg/kg/injection, schedule: Q01DX001 (ip), vehicle: carboxymethylcellulose (CMC)
[3] = dose: 400.0 mg/kg/injection, schedule: Q01DX001 (ip), vehicle: carboxymethylcellulose (CMC)
[4] = dose: 100.0 mg/kg/injection, schedule: Q04DX003 (ip), vehicle: saline
[5] = dose: 200.0 mg/kg/injection, schedule: Q04DX003 (ip), vehicle: saline
[6] = dose: 400.0 mg/kg/injection, schedule: Q04DX003 (ip), vehicle: saline
[7] = dose: 100.0 mg/kg/injection, schedule: Q01DX009 (ip), vehicle: Klucel (hydroxypropylcellulose) (HPC)
[8] = dose: 50.0 mg/kg/injection, schedule: Q01DX009 (ip), vehicle: saline with Tween-80
[9] = dose: 100.0 mg/kg/injection, schedule: Q01DX009 (ip), vehicle: saline with Tween-80
[10] = dose: 200.0 mg/kg/injection, schedule: Q01DX009 (ip), vehicle: saline with Tween-80
[11] = dose: 100.0 mg/kg/injection, schedule: Q01DX001 (ip), vehicle: saline
[12] = dose: 200.0 mg/kg/injection, schedule: Q01DX001 (ip), vehicle: saline
[13] = dose: 50.0 mg/kg/injection, schedule: Q01DX001 (ip), vehicle: saline
[14] = dose: 400.0 mg/kg/injection, schedule: Q01DX009 (ip), vehicle: saline with Tween-80
[15] = dose: 400.0 mg/kg/injection, schedule: Q01DX001 (ip), vehicle: saline
[16] = dose: 100.0 mg/kg/injection, schedule: Q04DX002 (ip), vehicle: Klucel (hydroxypropylcellulose) (HPC)
[17] = dose: 200.0 mg/kg/injection, schedule: Q04DX002 (ip), vehicle: Klucel (hydroxypropylcellulose) (HPC)
[18] = dose: 400.0 mg/kg/injection, schedule: Q04DX002 (ip), vehicle: Klucel (hydroxypropylcellulose) (HPC)

Measured: T/C

C[CH2][Pb]([CH2]C)([CH2]C)[O]C(=O)CBr
inactive: dose: 0.78 mg/kg/injection, schedule: Q01DX009 (ip), vehicle: Klucel (hydroxypropylcellulose) (HPC) 92 % of control | dose: 1.56 mg/kg/injection, schedule: Q01DX009 (ip), vehicle: Klucel (hydroxypropylcellulose) (HPC) 103 % of control | dose: 3.12 mg/kg/injection, schedule: Q01DX009 (ip), vehicle: Klucel (hydroxypropylcellulose) (HPC) 98 % of control and 92 % of control | dose: 3.12 mg/kg/injection, schedule: Q04DX002 (ip), vehicle: Klucel (hydroxypropylcellulose) (HPC) 93 % of control | dose: 6.25 mg/kg/injection, schedule: Q04DX002 (ip), vehicle: Klucel (hydroxypropylcellulose) (HPC) 90 % of control | dose: 12.5 mg/kg/injection, schedule: Q04DX002 (ip), vehicle: Klucel (hydroxypropylcellulose) (HPC) 98 % of control and 106 % of control

O=C(O)c1ccc(C(Cl)C(Cl)(Cl)Cl)cc1O (configuration not stated)
inactive: [1] 92 % of control | [2] 94 % of control | [3] 96 % of control

CS(=O)CCNC(=O)NS(=O)(=O)c1ccc(Cl)cc1 (configuration not stated)
inactive: [4] 97 % of control | [5] 98 % of control | [6] 108 % of control

Cc1ccc(NC(=O)Oc2c(C)cccc2C)c([N+](=O)[O-])c1
inactive: dose: 50.0 mg/kg/injection, schedule: Q01DX009 (ip), vehicle: Klucel (hydroxypropylcellulose) (HPC) 93 % of control | [7] 87 % of control

CCN(C(=O)Nc1ccc(F)c(Cl)c1)c1ccc(Cl)cc1
inactive: [8] 100 % of control | [9] 96 % of control | [10] 96 % of control

CCc1ccncc1
inactive: [11] 101 % of control | [12] 88 % of control

CCCC/C=C/CO
inactive: dose: 25.0 mg/kg/injection, schedule: Q01DX009 (ip), vehicle: saline with Tween-80 97 % of control | [8] 97 % of control and 100 % of control | [10] 97 % of control and 100 % of control

CCOC(=O)c1cc2c([nH]1)CCCC2
inactive: dose: 100.0 mg/kg/injection, schedule: Q04DX002 (ip), vehicle: saline with Tween-80 100 % of control | dose: 200.0 mg/kg/injection, schedule: Q04DX002 (ip), vehicle: saline with Tween-80 94 % of control | dose: 400.0 mg/kg/injection, schedule: Q04DX002 (ip), vehicle: saline with Tween-80 97 % of control

CC(=O)/C(=C(/C)OB(F)F)C(C)C
inactive: [13] 102 % of control | [11] 104 % of control | [12] 102 % of control

CN(C)C1C2C(CS2(=O)=O)C1(C)C (configuration not stated)
inactive: dose: 75.0 mg/kg/injection, schedule: Q01DX001 (ip), vehicle: carboxymethylcellulose (CMC) 100 % of control | dose: 150.0 mg/kg/injection, schedule: Q01DX001 (ip), vehicle: carboxymethylcellulose (CMC) 100 % of control

CC(=O)NC1CCC(C)CC1 (configuration not stated)
inactive: [13] 109 % of control | dose: 100.0 mg/kg/injection, schedule: Q01DX001 (ip), vehicle: Klucel (hydroxypropylcellulose) (HPC) 93 % of control | [11] 93 % of control | [12] 102 % of control

CCCCCC(=O)c1ccc(O)cc1O
inactive: dose: 12.5 mg/kg/injection, schedule: Q01DX009 (ip), vehicle: gum acacia 104 % of control | dose: 25.0 mg/kg/injection, schedule: Q01DX009 (ip), vehicle: gum acacia 109 % of control | dose: 50.0 mg/kg/injection, schedule: Q01DX009 (ip), vehicle: gum acacia 93 % of control and 95 % of control | dose: 100.0 mg/kg/injection, schedule: Q04DX003 (ip), vehicle: gum acacia 95 % of control | dose: 200.0 mg/kg/injection, schedule: Q04DX003 (ip), vehicle: gum acacia 94 % of control

Cc1ccc(S(=O)(=O)N(C)CCCCC(=O)O)cc1
inactive: [9] 90 % of control | [10] 104 % of control | [14] 93 % of control

CCCCNc1nc2ccccc2[nH]1
inactive: dose: 5.0 mg/kg/injection, schedule: Q01DX009 (ip), vehicle: acetone 98 % of control | dose: 10.0 mg/kg/injection, schedule: Q01DX001 (ip), vehicle: saline 103 % of control | dose: 10.0 mg/kg/injection, schedule: Q01DX009 (ip), vehicle: acetone 98 % of control | dose: 20.0 mg/kg/injection, schedule: Q01DX001 (ip), vehicle: saline 101 % of control | dose: 20.0 mg/kg/injection, schedule: Q01DX009 (ip), vehicle: acetone 110 % of control | dose: 40.0 mg/kg/injection, schedule: Q01DX001 (ip), vehicle: saline 101 % of control

CCCCC(CC)C(=O)CC(C)=O (configuration not stated)
inactive: [13] 103 % of control | [11] 95 % of control | [12] 103 % of control | [15] 97 % of control

Cc1ccccc1N=Cc1ccccc1O.[Co]
inactive: dose: 100.0 mg/kg/injection, schedule: Q01DX001 (ip), vehicle: other 102 % of control | dose: 200.0 mg/kg/injection, schedule: Q01DX001 (ip), vehicle: other 98 % of control

COC(=O)c1noc2cc([N+](=O)[O-])ccc12
inactive: [9] 96 % of control | [10] 92 % of control | [14] 90 % of control

CC(O)c1cccc(NC(=O)Nc2ccc(Cl)c(Cl)c2)c1 (configuration not stated)
inactive: [7] 96 % of control | dose: 200.0 mg/kg/injection, schedule: Q01DX009 (ip), vehicle: Klucel (hydroxypropylcellulose) (HPC) 98 % of control | dose: 400.0 mg/kg/injection, schedule: Q01DX009 (ip), vehicle: Klucel (hydroxypropylcellulose) (HPC) 96 % of control

Cc1cc(=S)n(C)c2ccccc12
inactive: [1] 89 % of control | [2] 89 % of control | [3] 96 % of control

Nc1ncnc2c1c(-c1nn[nH]n1)cn2C1OC(CO)C(O)C1O (configuration not stated)
inactive: dose: 12.5 mg/kg/injection, schedule: Q01DX005 (ip), vehicle: saline 121 % of control | dose: 12.5 mg/kg/injection, schedule: Q01DX009 (ip), vehicle: saline 122 % of control | dose: 50.0 mg/kg/injection, schedule: Q01DX005 (ip), vehicle: saline 108 % of control | dose: 50.0 mg/kg/injection, schedule: Q01DX009 (ip), vehicle: saline 98 % of control

O=C1OC(/C=C/c2ccccc2)=NC/1=C\C=C\c1ccccc1
inactive: [16] 107 % of control | [17] 104 % of control | [18] 104 % of control

O=C(O)c1ccc(=O)[nH]n1
inactive: [16] 115 % of control | [17] 93 % of control | [18] 89 % of control

[S-]c1n[n+](-c2ccccc2)cs1
inactive: [11] 97 % of control | [12] 95 % of control | [15] 92 % of control

c1ccc2c(c1)CC1Sc3ccccc3N=C21 (configuration not stated)
inactive: dose: 100.0 mg/kg/injection, schedule: Q04DX003 (ip), vehicle: saline with Tween-80 103 % of control | dose: 200.0 mg/kg/injection, schedule: Q04DX003 (ip), vehicle: saline with Tween-80 95 % of control

CCOC(=O)C1(C(=O)OCC)C/C=C/CC(C(=O)OCC)(C(=O)OCC)C/C=C/C1
inactive: dose: 100.0 mg/kg/injection, schedule: Q01DX009 (ip), vehicle: saline 90 % of control | [4] 98 % of control | dose: 200.0 mg/kg/injection, schedule: Q01DX009 (ip), vehicle: saline 102 % of control | [5] 95 % of control | dose: 400.0 mg/kg/injection, schedule: Q01DX009 (ip), vehicle: saline 92 % of control | [6] 90 % of control

OC(/C=C/c1ccccc1)C(O)/C=C/c1ccccc1 (configuration not stated)
inactive: [9] 102 % of control | [10] 104 % of control | [14] 111 % of control
